The values that follow come from patent publication US20260083731A1, “METHODS OF TREATING UVEAL MELANOMA WITH A PKC INHIBITOR” (IDEAYA BIOSCIENCES, INC., priority 2022, published 2026).

For experiment [1], the system named is ocular tumor (uveal melanoma). The experiment is described as follows: Neoadjuvant treatment of uveal melanoma patients, ocular tumor size by ocular ultrasound. The format is in vivo, human. As to conditions: vs baseline. The source says: Patients can meet all of the following inclusion criteria: • Patient must be at least 18 years of age. • Patient is able to provide written, informed consent before initiation of any study related-procedures, and is able, in the opinion of the investigator, to comply with all the requirements of the study. • Primary diagnosis of uveal melanoma as clinically determined by the treating investigator planned to undergo enucleation (prior plaque brachytherapy is permitted) • Life expectancy >3 months. • Able to safely swallow orally administered medication. • Patients with a prior history of or clinically stable concurrent malignancy are eligible for enrolment provided the malignancy is clinically insignificant, no treatment is required, and the patient is clinically stable. • Patients with a history of squamous or basal cell carcinoma of the skin or carcinoma in the situ of the cervix may be enrolled. • Patients with prostate cancer with an elevated PSA not requiring treatment may be enrolled. • Patient has Eastern Cooperative Oncology Group (ECOG) performance status 0-1 (Karnofsky 70%). • Patient has adequate organ function at screening: • Absolute neutrophil count ≥1500/mm3 without the use of hematopoietic growth factors • Platelet count ≥75,000/mm3 (must be at least 2 weeks post-platelet transfusion and not receiving platelet-stimulating agents) • Haemoglobin ≥8.0 g/dL (must be at least 2 weeks post-red blood cell transfusion and not receiving erythropoietic-stimulating agents) • Total bilirubin ≤1.5× the upper limit of normal (ULN).
The presence of any of the following can exclude a patient from being eligible for the study: • Previous treatment with a PKC inhibitor • Have adverse events (AEs) from prior anti-cancer therapy that have not resolved to Grade ≤1 except for alopecia, prior peripheral neuropathy, or anemia. Endocrinopathies resulting from previous immunotherapy are considered part of the medical history and not an AE. • Untreated or symptomatic malignant lesions in the central nervous system (CNS). • Known human immunodeficiency virus (HIV) or acquired immunodeficiency syndrome (AIDS)-related illness. • Active infection requiring therapy (except nail fungus), positive tests for Hepatitis B surface antigen (HBsAg) with detected Hepatitis B virus (HBV) DNA or positive Hepatitis C antibody with detected Hepatitis C virus (HCV) RNA. • Prior gastrectomy or upper bowel removal or any other gastrointestinal disorder or defect e.g., malabsorption disorder such as Crohn's disease or ulcerative colitis, that would interfere with absorption of Compound 1. • Patients who are receiving treatment with medications that cannot be discontinued prior to study entry and that are considered to be any of the following • known to be strong inducers or inhibitors of CYP3A4/5 • known to be substrates of CYP3A4/5, OAT3, OATP1B1, and MATE1/2-K with a narrow therapeutic index • Females who are pregnant or breastfeeding: • Women of childbearing potential must not be considering getting pregnant during the study. • Patients of reproductive potential (male & female) must practice an effective method of contraception during treatment and for 30 days following the last dose of Compound 1. […] If electrolytes are abnormal, they may be corrected, and baseline ECGs should be repeated. • Known to have previously received Compound 1 • Presence of any other condition that may increase the risk associated with study participation or may interfere with the interpretation of study results and, in the opinion of the investigator, would make the patient inappropriate for entry into the study.
A patient (patient 1) (enrolled in NCT05187884) was treated with Compound 1 (300 mg BID) for 27 days, prior to potential planned interventional procedure comprising enucleation. A 22% ocular tumor reduction in maximal apical height by ocular ultrasound (after about 28 days administration of Compound 1) was observed prior to the planned interventional procedure. […]

For experiment [2], the system named is ocular tumor (uveal melanoma). The experiment can be described thus: PET scan of metabolic activity of the ocular tumor (FDG avidity, SUV) in treated patients. The format is in vivo, human. Here is the method:
(§1) A patient (patient 2) (enrolled in NCT02601378) with metastatic disease to liver and peritoneum at the time of diagnosis, and with primary lesion intact (intact ocular tumor) was treated with Compound 1 (300 mg BID).
A patient (patient 4) (enrolled in NCT05187884) was treated with Compound 1 (300 mg BID) for about 28 days, prior to the planned interventional procedure (e.g., enucleation). A 31% ocular tumor reduction in maximal apical height by ocular ultrasound was observed (after about 28 days administration of Compound 1).

Experiment [3] concerns ocular tumor (uveal melanoma). The experiment is described as follows: Clinical outcome of the affected eye in treated uveal melanoma patients. It counts as in vivo, human. Here is the method:
as §1
A patient (patient 5) (enrolled in NCT05187884) was treated with Compound 1 (300 mg BID) for about 28 days. A 13% ocular tumor reduction in maximal apical height by ocular ultrasound was observed (after about 28 days administration of Compound 1). The patient is continuing on treatment to maximal benefit up to 6 months prior to planned enucleation. The patient was continuing treatment with Compound 1 (300 mg BID) for additional about 3 months (in addition to about 28 days as described above), and a 24% ocular tumor reduction in maximal apical height by ocular ultrasound was observed. […] The patient continues on adjuvant therapy for potentially up to 6 months.
A patient (patient 6) (enrolled in NCT05187884) was treated with Compound 1 (300 mg BID) for about 56 days, prior to the planned interventional procedure (e.g. enucleation). A 11% ocular tumor reduction in maximal apical height and 23% in Largest Basal Diameter by ocular ultrasound was observed. The patient is continuing on treatment to maximal benefit up to 6 months prior to planned enucleation. The patient continued treatment with Compound 1 (300 mg BID) for about 2 months (in addition to the 56 days as described above), and a 24% ocular tumor reduction in maximal apical height by ocular ultrasound was observed. The patient continued treatment with Compound 1 (300 mg BID) for about 1 month (in addition to about 4 months described above), and a 45% ocular tumor reduction in maximal apical height and 63% reduction in Largest Basal Diameter by ocular ultrasound was observed.

The subject of experiment [4] is uveal melanoma cells harboring GNAQ mutations. The following applies: by targeting PKC/ERK1/2 and PKC/NF-xB pathways; X. Wu et al. 2012; cited from earlier work.
Setting [5] is: patient 6, 300 mg BID, about 4 months plus about 1 month.
[6] abbreviates: patient 6, 300 mg BID, about 56 days.
The mark [7] stands for this setting: patient 7, 300 mg BID, after about 84 days.
Setting [8] is: patient 8, 300 mg BID, after about 84 days.
Where [9] appears, read: patient 9, 300 mg BID, after about 56 days.

Consider `CC1(N)CCN(c2cccnc2NC(=O)c2nc(-c3ncccc3C(F)(F)F)cnc2N)CC1` [Compound 1], for which the “ocular tumor reduction in maximal apical height by ocular ultrasound” value in experiment [1] (patient 1, 300 mg BID, after about 28 days) is 22%; in experiment [1] (patient 3, 300 mg BID, after 28 days), around 10%; in experiment [1] (patient 4, 300 mg BID, after about 28 days) it was 31%; in experiment [1] (patient 5, 300 mg BID, about 28 days plus additional about 3 months), 24%; in experiment [1] (patient 5, 300 mg BID, after about 28 days), 13%; in experiment [1] (patient 6, 300 mg BID, 56 days plus about 2 months) it was 24%. In addition, the “ocular tumor reduction in maximal apical height by ocular ultrasound” value in experiment [1] (setting [5]) was found to be 45%; in experiment [1] (setting [6]), 11%; in experiment [1] (setting [7]), 14.3%; in experiment [1] (setting [8]) it was 28.5%; in experiment [1] (setting [9]), 4.0%. Besides, the “reduction in Largest Basal Diameter by ocular ultrasound” value in experiment [1] (setting [5]) was 63%; in experiment [1] (setting [6]), 23%; in experiment [1] (setting [7]), 15.2%; in experiment [1] (setting [8]) it was 19.4%; in experiment [1] (setting [9]), 2.1%. In addition, the “reduction in the metabolic activity of the ocular tumor (FDG avidity) by SUV, PET” value in experiment [2] (patient 2 (metastatic disease, intact ocular tumor), 300 mg BID, after about two weeks) stood at 74%; in experiment [2] (patient 4, 300 mg BID, after about one month), 42%. The “patient-reported visual symptoms in affected eye” value in experiment [3] (patient 2, 300 mg BID) is “improvement in visual symptoms in affected eye”. For the same molecule, the “eye outcome (plaque brachytherapy enabled instead of planned enucleation)” value in experiment [3] (patient 5, 300 mg BID neoadjuvant) was “the eye was preserved”; in experiment [3] (patient 6, 300 mg BID neoadjuvant) it was “the eye was preserved”.
As for `CN1CCN(c2nc(C3=C(c4c[nH]c5ccccc45)C(=O)NC3=O)c3ccccc3n2)CC1` [sotrastaurin], in experiment [4], the “inhibition of growth of uveal melanoma cells harboring GNAQ mutations” value is given as “selectively inhibit the growth”.
